According to patent US20050256103A1, “Indole derivative having piperidine ring” (Eisai Co., Ltd., priority 2004, published 2005):
Like-named read-outs stand apart in the source and are kept apart here.

Key:
[1] = target: T1, 5-HT1A receptor (Sus scrofa, UniProt A0A4X1UTF5); assay: Affinity for serotonin 1A receptor: inhibition of [3H]MPPF binding in swine hippocampal membrane fraction; conditions: for IC50: swine hippocampal membrane, 37°C 30 min; for L/H ratio: low affinity IC50 divided by high affinity IC50, 1 or smaller = no intrinsic activity, 2 or greater = intrinsic activity
T1 construct: Swine hippocampus was homogenized in a 50 mM Tris-Hcl buffer; from tissue; host or cells: swine hippocampus, membrane fraction
T1 sequence (A0A4X1UTF5 1-422): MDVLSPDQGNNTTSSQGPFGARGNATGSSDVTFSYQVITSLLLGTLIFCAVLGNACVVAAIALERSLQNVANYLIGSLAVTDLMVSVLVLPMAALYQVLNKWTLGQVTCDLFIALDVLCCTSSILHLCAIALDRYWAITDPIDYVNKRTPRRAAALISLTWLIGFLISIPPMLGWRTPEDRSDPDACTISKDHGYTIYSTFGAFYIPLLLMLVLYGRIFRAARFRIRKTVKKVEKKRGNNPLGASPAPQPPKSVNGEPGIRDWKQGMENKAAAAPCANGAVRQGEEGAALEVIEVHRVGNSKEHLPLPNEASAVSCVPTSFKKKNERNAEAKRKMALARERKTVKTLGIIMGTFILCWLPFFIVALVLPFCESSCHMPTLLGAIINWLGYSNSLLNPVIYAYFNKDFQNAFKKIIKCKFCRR
Summary of the method: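 Swine hippocampal membranes incubated 30 min at 37 °C with 0.5 nM [3H]MPPF and test compound in 50 mM Tris-HCl pH 7.4, 1% DMSO, with 10 mM MgCl2 (G-protein-coupled, high-affinity state) or 1 mM Gpp(NH)p (uncoupled, low-affinity state). Bound radioactivity measured by filtration and scintillation counting; nonspecific binding defined with 10 μM WAY-100,635. IC50 in each state; low/high IC50 ratio taken as an estimate of intrinsic activity.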

[2] = target: T2, serotonin 1A receptor (Mus musculus, UniProt Q64264); assay: Antagonistic effect on serotonin 1A receptor agonist (8-OH-DPAT)-induced hypothermia in mouse; type: in vivo; conditions: for ED50: CD-1 (ICR) male mice, inhibition of hypothermia by 8-OH-DPAT 0.5 mg/kg sc, test substance 15 minutes before agonist
T2 construct: into the rectum of CD-1 (ICR) male mice (25-45 g); from tissue; host or cells: living CD-1 (ICR) male mice (in vivo)
T2 sequence (Q64264 1-421): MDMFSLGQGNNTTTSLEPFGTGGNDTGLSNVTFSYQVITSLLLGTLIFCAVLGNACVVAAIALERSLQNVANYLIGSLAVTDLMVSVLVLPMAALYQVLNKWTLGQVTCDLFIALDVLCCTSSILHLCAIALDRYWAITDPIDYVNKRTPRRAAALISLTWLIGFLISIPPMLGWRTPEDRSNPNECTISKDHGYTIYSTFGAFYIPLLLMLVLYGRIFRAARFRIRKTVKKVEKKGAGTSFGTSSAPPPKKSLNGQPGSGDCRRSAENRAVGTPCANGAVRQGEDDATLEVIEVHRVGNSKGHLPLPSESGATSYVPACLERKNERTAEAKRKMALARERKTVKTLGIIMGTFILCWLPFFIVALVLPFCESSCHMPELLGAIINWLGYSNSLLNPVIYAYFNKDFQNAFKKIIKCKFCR
Summary of the method: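 CD-1 (ICR) male mice, 25-45 g; rectal temperature by thermistor probe at about 2 cm depth. Test substance given 15 min before s.c. 8-OH-DPAT […]; antagonism scored as inhibition of the induced hypothermia.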

[3] = tested on: urinary reflex of Sprague-Dawley female rats; assay: Inhibitory action against accentuated urinary reflex of rat due to destruction of the superior colliculus (cystometrogram); type: in vivo; conditions: iv, rat with superior colliculus lesion
Excerpt: (1) In the present test, Sprague-Dawley female rates (200-350 g) were used. The rats were subjected to median incision of the abdomen under anesthesia. Thereafter, a hole with a minor diameter was made on the head portion of the bladder, and a catheter used for measurement of an intravesical pressure was placed therein. A catheter used for administration of a test substance was placed in the femoral vein. These catheters were fixed at the occipital region of the rat through the subcutis. One day later, the urinary reflex of the rats was measured with a cystometrogram. Thereafter, the rats were fixed on a brain stereotaxis apparatus under anesthesia, and then subjected to median incision of the scalp. […] Thereafter, electric current was applied (65° C., 4 minutes), so as to damage the brain tissues. After completion of the operation, when the rat awakened from anesthesia, cystometrogram was conducted again to confirm the enhanced state of urinary reflex. A test substance was administered through the catheter placed in the femoral vein, and the action of the test substance to the urinary reflex was evaluated. In addition, the effects of several test substances were compared using the maximal reaction (Emax).

[4] = [3H]MPPF 0.5 nM, receptor in high affinity (G-protein binding, MgCl2 10 mM) state, read-out: High affinity IC50
[5] = [3H]MPPF 0.5 nM, receptor in low affinity (G-protein non-binding, Gpp(NH)p 1 mM) state, read-out: Low affinity IC50

| SMILES | IC50 [1, 4] [nM] | IC50 [1, 5] [nM] | L/H ratio [1] | ED50 [2] | Bladder capacity Emax ([3]; dose 0.03 mg/kg) [%] | IC50 ([1]; High affinity IC50, [3H]MPPF 0.5 nM, receptor in high affinity (G-protein binding, MgCl2 10 mM) state) [nM] | IC50 ([1]; Low affinity IC50, [3H]MPPF 0.5 nM, receptor in low affinity (G-protein non-binding, Gpp(NH)p 1 mM) state) [nM] | IC50 ([1]; read-out: Low affinity IC50, [3H]MPPF 0.5 nM, receptor in low affinity (G-protein non-binding, Gpp(NH)p 1 mM) state) [nM] | affinity for 5-HT1A ([1]; result in words) | antagonistic effect against the receptor ([2]; result in words) | Bladder capacity Emax ([3]; dose 0.01 mg/kg) [%] |
| --- | --- | --- | --- | --- | --- | --- | --- | --- | --- | --- | --- |
| COc1ccc2nc(C)oc2c1CCN1CCC(n2ccc3ccc(C(N)=O)cc32)CC1 [Compound 3, 1-{1-[2-(6-methoxy-2-methylbenzoxazol-7-yl)ethyl]piperidin-4-yl}-1H-indole-6-carboxamide] | 0.46 | 0.34 | 0.7 | 0.18 mg/kg, sc | 62 |  |  |  |  |  |  |
| COc1cc2oc(C)nc2cc1CCN1CCC(n2ccc3ccc(C(N)=O)cc32)CC1 [Compound 4, 1-{1-[2-(6-methoxy-2-methylbenzoxazol-5-yl)ethyl]piperidin-4-yl}-1H-indole-6-carboxamide] | 0.17 | 0.15 | 0.9 | 0.1 mg/kg, sc | 107 |  |  |  |  |  |  |
| CNC(=O)c1ccc2ccn(C3CCN(CCc4c(OC)ccc5c4OC(C)(C)CC5O)CC3)c2c1 (stereo not drawn) [Compound 48, 1-{1-[2-(4-hydroxy-7-methoxy-2,2-dimethylchroman-8-yl)ethyl]piperidin-4-yl}-N-methyl-1H-indole-6-carboxamide] | 1.2 | 1.1 | 0.9 | 0.06 mg/kg, sc |  |  |  |  |  |  |  |
| COc1ccc2c(c1CCN1CCC(n3ccc4ccc(C(N)=O)cc43)CC1)CCC2O (stereo not drawn) [Compound 49, 1-{1-[2-(1-hydroxy-5-methoxyindan-4-yl)ethyl]piperidin-4-yl}-1H-indole-6-carboxamide] | 0.22 | 0.27 | 1.2 | 0.28 mg/kg, sc |  |  |  |  |  |  |  |
| COc1cc2cccnc2cc1CCN1CCC(n2ccc3ccc(C(N)=O)cc32)CC1 [Compound 51, 1-{1-[2-(6-methoxyquinolin-7-yl)ethyl]piperidin-4-yl}-1H-indole-6-carboxamide] |  |  | 0.9 | 0.66 mg/kg, sc |  | 0.18 | 0.17 |  |  |  |  |
| COc1cc2c(cc1CCN1CCC(n3ccc4ccc(C(N)=O)cc43)CC1)N(C(C)=O)CCC2 [Compound 52, 1-{1-[2-(1-acetyl-6-methoxy-1,2,3,4-tetrahydroquinolin-7-yl)ethyl]piperidin-4-yl}-1H-indole-6-carboxamide] | 0.22 | 0.2 | 0.9 | 0.5 mg/kg, sc |  |  |  |  |  |  |  |
| COc1cc2c(cc1CCN1CCC(n3ccc4ccc(C(N)=O)cc43)CC1)N(C)CCC2 [Compound 53, 1-{1-[2-(6-methoxy-1-methyl-1,2,3,4-tetrahydroquinolin-7-yl)ethyl]piperidin-4-yl}-1H-indole-6-carboxamide] | 0.31 | 0.46 | 1.5 | 0.3 mg/kg, sc |  |  |  |  |  |  |  |
| COc1ccc2c(c1CCN1CCC(n3ccc4ccc(C(N)=O)cc43)CC1)CCCN2C(C)=O [Compound 54, 1-{1-[2-(1-acetyl-6-methoxy-1,2,3,4-tetrahydroquinolin-5-yl)ethyl]piperidin-4-yl}-1H-indole-6-carboxamide] | 0.18 | 0.13 | 0.7 | 0.84 mg/kg, sc |  |  |  |  |  |  |  |
| COc1cc2c(cc1CCN1CCC(n3ccc4ccc(C(N)=O)cc43)CC1)N(C)C(=O)CC2 [Compound 57, 1-{1-[2-(6-methoxy-1-methyl-2-oxo-1,2,3,4-tetrahydroquinolin-7-yl)ethyl]piperidin-4-yl}-1H-indole-6-carboxamide] | 0.18 | 0.24 | 1.3 | 0.1 mg/kg, sc |  |  |  |  |  |  |  |
| CNC(=O)c1ccc2ccn(C3CCN(CCc4cc5c(cc4OC)CCC(=O)N5C)CC3)c2c1 [Compound 58, 1-{1-[2-(6-methoxy-1-methyl-2-oxo-1,2,3,4-tetrahydroquinolin-7-yl)ethyl]piperidin-4-yl}-N-methyl-1H-indole-6-carboxamide] | 0.33 | 0.39 | 1.2 | 0.53 mg/kg, sc |  |  |  |  |  |  |  |
| CCN1C(=O)CCc2cc(OC)c(CCN3CCC(n4ccc5ccc(C(N)=O)cc54)CC3)cc21 [Compound 59, 1-{1-[2-(1-ethyl-6-methoxy-2-oxo-1,2,3,4-tetrahydroquinolin-7-yl)ethyl]piperidin-4-yl}-1H-indole-6-carboxamide] | 0.19 | 0.12 | 0.6 | 0.3 mg/kg, sc |  |  |  |  |  |  |  |
| CCn1c(=O)oc2cc(OC)c(CCN3CCC(n4ccc5ccc(C(N)=O)cc54)CC3)cc21 [Compound 60, 1-{1-[2-(3-ethyl-6-methoxy-2-oxo-2,3-dihydrobenzoxazol-5-yl)ethyl]piperidin-4-yl}-1H-indole-6-carboxamide] | 0.28 | 0.24 | 0.9 | 0.52 mg/kg, sc |  |  |  |  |  |  |  |
| NC(=O)c1ccc2ccn(C3CCN(CCc4ccc(F)cc4)CC3)c2c1 [Compound A, reference compound] | 0.1 |  | 3.7 | >1 mg/kg, sc |  |  |  | 0.5 | has affinity | weak | −36 |
